# Measurements reported in US12637413B2, “Fatty acid amide hydrolase (FAAH) cleavable prodrugs of thyromimetics and combination with peripherally restricted FAAH inhibitors” (Autobahn Therapeutics, Inc., priority 2021, dated 2026).
# Molecular target: T1, recombinant human FAAH (rhFAAH) (Homo sapiens, UniProt O00519)
# T1 construct: purchased Cayman Chemical (Ann Arbor, MI, USA)
# T1 sequence (O00519 1-579): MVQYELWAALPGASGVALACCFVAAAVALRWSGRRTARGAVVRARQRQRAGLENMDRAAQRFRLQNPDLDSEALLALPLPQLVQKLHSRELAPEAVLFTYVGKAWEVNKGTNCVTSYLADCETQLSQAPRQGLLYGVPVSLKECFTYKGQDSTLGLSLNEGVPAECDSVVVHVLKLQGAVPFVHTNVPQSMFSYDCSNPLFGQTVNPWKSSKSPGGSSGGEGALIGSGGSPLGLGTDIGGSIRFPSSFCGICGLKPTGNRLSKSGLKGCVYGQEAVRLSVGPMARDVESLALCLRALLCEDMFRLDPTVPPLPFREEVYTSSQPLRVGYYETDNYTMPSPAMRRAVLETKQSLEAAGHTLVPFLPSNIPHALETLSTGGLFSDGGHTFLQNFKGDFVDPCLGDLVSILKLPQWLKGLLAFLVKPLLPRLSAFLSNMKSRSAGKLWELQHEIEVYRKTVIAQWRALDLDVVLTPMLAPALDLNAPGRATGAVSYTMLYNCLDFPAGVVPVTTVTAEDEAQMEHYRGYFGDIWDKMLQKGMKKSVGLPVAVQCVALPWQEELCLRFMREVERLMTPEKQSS
# Test: FAAH substrate evaluation (acid metabolite formation)
# Format: biochemical
# Settings: observed rate constant for acid metabolite formation; 0.5 ng/μL rhFAAH, 1 μM test compound, room temperature, 0-60 minutes
# Experimental: Purified recombinant human FAAH (rhFAAH) was purchased from Cayman Chemical (Ann Arbor, MI, USA). The total volume for each incubation was 400 μL containing a final 0.5 ng/μL rhFAAH, 1 μM test compound, 1.25% ethanol or 1 μM PF-3845 (FAAH inhibitor), and 0.1% bovine serum albumin in Tris-EDTA buffer at pH 8.0). The positive control was LL-341001. The incubation was conducted at the room temperature. At 0, 5, 15, 30 and 60 minutes, an aliquot of 30 μL reaction mixtures was removed and mixed with 300 μL acetonitrile containing 5 ng/mL terfenadine and 10 ng/mL tolbutamide as internal standards to quench the reaction. The resulting mixture was centrifuged at 4000 rpm, 4° C. for 15 minutes, and 100 μL supernatant was ready for LC-MS/MS analysis to measure the formation of acid metabolite.
# Acquity Ultra Performance LC system from Waters was used for sample analysis. The chromatography was performed on a reverse phase Kinetex 2.6 μm C18 column, 2.1×30 mm, 100 Å. The mobile phase A comprised of 0.1% formic acid in water and mobile phase B comprised of 0.1% formic acid in acetonitrile with a 2-min run time at the flow rate of 0.8 mL/min for the acid metabolite from positive control or a 1.5 min run time at the flow rate of 0.9 mL/min for the acid metabolite of test compounds. The mass spectrometer (API-5500 and API Q Trap 4000 Applied Biosystems/MDS SCIEX Instruments, Framingham, MA, USA) was operated under ESI positive or negative ion MRM mode.
# The formation of acid metabolite was monitored and quantified using one calibration point of 1 μM. The observed rate constant (ke) for the acid metabolite formation was calculated by plotting the metabolite concentration versus time of incubation with the slope being ke and is shown in Table 1.
row,ke,SMILES
1,A (ke is more than or equal to 0.1),"CC(C)c1cc(Cc2c(Cl)cc(OCC(=O)Nc3cccnc3)cc2Cl)ccc1O [Compound 114, 2-(3,5-dichloro-4-(4-hydroxy-3-isopropylbenzyl)phenoxy)-N-(pyridin-3-yl)acetamide]"
2,A (ke is more than or equal to 0.1),C#CCNC(=O)COc1cc(Cl)c(Cc2ccc(O)c(C(C)C)c2)c(Cl)c1 [Compound 5]
3,A (ke is more than or equal to 0.1),"CC(C)c1cc(Cc2c(Cl)cc(OCC(=O)NCCCF)cc2Cl)ccc1O [Compound 112, 2-(3,5-dichloro-4-(4-hydroxy-3-isopropylbenzyl)phenoxy)-N-(3-fluoropropyl)acetamide]"
4,A (ke is more than or equal to 0.1),C=CCNC(=O)COc1cc(Cl)c(Cc2ccc(O)c(C(C)C)c2)c(Cl)c1 [Compound 4]
5,A (ke is more than or equal to 0.1),CCCNC(=O)COc1cc(Cl)c(Cc2ccc(O)c(C(C)C)c2)c(Cl)c1 [Compound 3]
6,A (ke is more than or equal to 0.1),CC(C)c1cc(Cc2c(Cl)cc(OCC(=O)NN)cc2Cl)ccc1O [Compound 27]
7,A (ke is more than or equal to 0.1),CC(C)c1cc(Cc2c(Cl)cc(OCC(=O)NO)cc2Cl)ccc1O [Compound 26]
8,A (ke is more than or equal to 0.1),CC(C)c1cc(Cc2c(Cl)cc(OCC(=O)NCCF)cc2Cl)ccc1O [Compound 14]
9,A (ke is more than or equal to 0.1),"CC(C)NC(=O)COc1cc(Cl)c(Cc2ccc(O)c(C(C)C)c2)c(Cl)c1 [Compound 126, 2-(3,5-dichloro-4-(4-hydroxy-3-isopropylbenzyl)phenoxy)-N-isopropylacetamide]"
10,B (ke is less than 0.1 and more than 0),CC(C)c1cc(Cc2c(Cl)cc(OCC(=O)NCCS(=O)O)cc2Cl)ccc1O [Compound 13]
11,A (ke is more than or equal to 0.1),CC(C)c1cc(Cc2c(Cl)cc(OCC(=O)NCCO)cc2Cl)ccc1O [Compound 6]
12,B (ke is less than 0.1 and more than 0),CC(C)c1cc(Cc2c(Cl)cc(OCC(=O)NCCc3ccccc3)cc2Cl)ccc1O [Compound 23]
13,A (ke is more than or equal to 0.1),"CC(C)c1cc(Cc2c(Cl)cc(OCC(=O)Nc3cccnn3)cc2Cl)ccc1O [Compound 104, 2-(3,5-dichloro-4-(4-hydroxy-3-isopropylbenzyl)phenoxy)-N-(pyridazin-3-yl)acetamide]"
14,A (ke is more than or equal to 0.1),"CC(C)c1cc(Cc2c(Cl)cc(OCC(=O)Nc3ccnnc3)cc2Cl)ccc1O [Compound 116, 2-(3,5-dichloro-4-(4-hydroxy-3-isopropylbenzyl)phenoxy)-N-(pyridazin-4-yl)acetamide]"

# More lines, now with the values behind:
row,SMILES,ke
1,"Cc1noc(NC(=O)COc2cc(Cl)c(Cc3ccc(O)c(C(C)C)c3)c(Cl)c2)c1C [Compound 103, 2-(3,5-dichloro-4-(4-hydroxy-3-isopropylbenzyl)phenoxy)-N-(3,4-dimethylisoxazol-5-yl)acetamide]",A (ke is more than or equal to 0.1)
2,CC(C)c1cc(Cc2c(Cl)cc(OCC(=O)N[C@@H](C)CO)cc2Cl)ccc1O [Compound 10],A (ke is more than or equal to 0.1)
3,"COc1ccc(NC(=O)COc2cc(Cl)c(Cc3ccc(O)c(C(C)C)c3)c(Cl)c2)nn1 [Compound 113, 2-(3,5-dichloro-4-(4-hydroxy-3-isopropylbenzyl)phenoxy)-N-(6-methoxypyridazin-3-yl)acetamide]",A (ke is more than or equal to 0.1)
4,"CC(C)c1cc(Cc2c(Cl)cc(OCC(=O)NC(C)(C)C)cc2Cl)ccc1O [Compound 119, N-(tert-butyl)-2-(3,5-dichloro-4-(4-hydroxy-3-isopropylbenzyl)phenoxy)acetamide]",C (ke is 0)
5,"CC(C)c1cc(Cc2c(Cl)cc(OCC(=O)NC3CCC3)cc2Cl)ccc1O [Compound 127, N-cyclobutyl-2-(3,5-dichloro-4-(4-hydroxy-3-isopropylbenzyl)phenoxy)acetamide]",B (ke is less than 0.1 and more than 0)
6,"CC#CCN(C)C(=O)COc1cc(Cl)c(Cc2ccc(O)c(C(C)C)c2)c(Cl)c1 [Compound 107, N-(but-2-yn-1-yl)-2-(3,5-dichloro-4-(4-hydroxy-3-isopropylbenzyl)phenoxy)-N-methylacetamide]",B (ke is less than 0.1 and more than 0)
7,"CC(C)c1cc(Cc2c(Cl)cc(OCC(=O)N3CCCC3)cc2Cl)ccc1O [Compound 117, 2-(3,5-dichloro-4-(4-hydroxy-3-isopropylbenzyl)phenoxy)-1-(pyrrolidin-1-yl)ethan-1-one]",B (ke is less than 0.1 and more than 0)
8,CC(C)c1c(O)ccc(Cc2c(Cl)cc(OCC(N)=O)cc2Cl)c1F [Compound 35],A (ke is more than or equal to 0.1)
9,"COc1ccc(NC(=O)COc2cc(Cl)c(Cc3ccc(O)c(C(C)C)c3)c(Cl)c2)cn1 [Compound 101, 2-(3,5-dichloro-4-{[4-hydroxy-3-(propan-2-yl)phenyl]methyl}phenoxy)-N-(6-methoxypyridin-3-yl)acetamide]",A (ke is more than or equal to 0.1)
10,CC(C)c1cc(Cc2c(Cl)cc(OCC(=O)NC(CO)CO)cc2Cl)ccc1O [Compound 11],B (ke is less than 0.1 and more than 0)
11,"CC(C)c1cc(Cc2c(Cl)cc(OCC(=O)N(C)C(C)C)cc2Cl)ccc1O [Compound 122, 2-(3,5-dichloro-4-(4-hydroxy-3-isopropylbenzyl)phenoxy)-N-isopropyl-N-methylacetamide]",B (ke is less than 0.1 and more than 0)
12,CNC(=O)COc1cc(Cl)c(Cc2ccc(O)c(C(C)C)c2)c(Cl)c1F [Compound 37],B (ke is less than 0.1 and more than 0)
13,CCNC(=O)COc1cc(Cl)c(Cc2ccc(O)c(C(C)C)c2F)c(Cl)c1 [Compound 33],A (ke is more than or equal to 0.1)
14,CC(C)c1cc(Cc2c(Cl)cc(OCC(=O)N(C)C)c(F)c2Cl)ccc1O [Compound 38],B (ke is less than 0.1 and more than 0)
15,"CC(C)c1cc(Cc2c(Cl)cc(OCC(=O)N(C)N(C)C)cc2Cl)ccc1O [Compound 108, 2-(3,5-dichloro-4-(4-hydroxy-3-isopropylbenzyl)phenoxy)-N,N′,N′-trimethylacetohydrazide]",B (ke is less than 0.1 and more than 0)
16,"CCN(C)C(=O)COc1cc(Cl)c(Cc2ccc(O)c(C(C)C)c2)c(Cl)c1 [Compound 130, 2-(3,5-dichloro-4-(4-hydroxy-3-isopropylbenzyl)phenoxy)-N-ethyl-N-methylacetamide]",B (ke is less than 0.1 and more than 0)
17,"CNN(C)C(=O)COc1cc(Cl)c(Cc2ccc(O)c(C(C)C)c2)c(Cl)c1 [Compound 124, 2-(3,5-dichloro-4-(4-hydroxy-3-isopropylbenzyl)phenoxy)-N,N′-dimethylacetohydrazide]",B (ke is less than 0.1 and more than 0)
18,"CC(C)c1cc(Cc2c(Cl)cc(OCC(=O)N3CCOCC3)cc2Cl)ccc1O [Compound 133, 2-(3,5-dichloro-4-(4-hydroxy-3-isopropylbenzyl)phenoxy)-1-morpholinoethan-1-one]",A (ke is more than or equal to 0.1)
19,CC(C)c1c(O)ccc(Cc2c(Cl)cc(OCC(=O)N(C)C)cc2Cl)c1F [Compound 32],A (ke is more than or equal to 0.1)
20,"CC(C)c1cc(Cc2c(Cl)cc(OCC(=O)N(C)CC(F)F)cc2Cl)ccc1O [Compound 132, 2-(3,5-dichloro-4-(4-hydroxy-3-isopropylbenzyl)phenoxy)-N-(2,2-difluoroethyl)-N-methylacetamide]",B (ke is less than 0.1 and more than 0)
